Target: Aldo-keto reductase family 1 member B1 (Rattus norvegicus, UniProt P07943)
Assay: Inhibition of rat lens aldose reductase

Compound	IC50
COc1cc(O)cc2oc(-c3ccccc3)cc(=O)c12	1000 µM
COc1cc(-c2cc(=O)c3c(OC)c(OC)c(OC)c(OC)c3o2)ccc1O	18.6 µM
COc1c(O)c(OC)c2c(=O)cc(-c3ccccc3)oc2c1OC	288 µM
O=c1cc(-c2ccccc2O)oc2cc(O)ccc12	1.66 µM
COc1cc2oc(-c3ccc(O)c(O)c3)c(C(C)=O)c(=O)c2c(OC)c1OC	8.91 µM
COc1cc(-c2cc(=O)c3c(O)c(OC)c(OC)cc3o2)ccc1OC1O[C@H](CO)[C@@H](O)[C@H](O)[C@H]1O (some centres not stated)	13.2 µM
COc1cc(OC)c2c(=O)c(OC)c(-c3ccc(O)c(O)c3)oc2c1OC	0.17 µM
COc1c(O)c(Cc2ccccc2)c2oc(-c3ccc(O)c(O)c3)cc(=O)c2c1O	0.0339 µM
COc1c(OC(C)=O)c(OC(C)=O)c(OC(C)=O)c2c(=O)cc(-c3ccc(OC(C)=O)c(OC(C)=O)c3)oc12	0.302 µM
COc1cc(-c2cc(=O)c3c(O)c(OC)c(O)c(OC)c3o2)ccc1OC1O[C@H](CO)[C@@H](O)[C@H](O)[C@H]1O (some centres not stated)	18.2 µM
COc1cc(-c2cc(=O)c3c(O)c(OC)c(OC4O[C@H](CO)[C@@H](O)[C@H](O)[C@H]4O)c(OC)c3o2)ccc1O (some centres not stated)	20.9 µM
COc1cc2oc(-c3ccc(O)c(O)c3)c(OC)c(=O)c2c(OC)c1OC	0.269 µM
COc1cc(O)c2c(=O)cc(-c3cc(O)c(OC)cc3OC)oc2c1	316 µM
COc1cc2oc(-c3ccc(O)c(O)c3)c(OC)c(=O)c2c(OC)c1O	0.302 µM
COc1c(O)c(O)c(O)c2c(=O)cc(-c3ccccc3)oc12	8.13 µM
COc1c(O)c(O)c2c(=O)cc(-c3ccccc3)oc2c1OC	8.39 µM

Compound	IC50
COc1c(-c2ccc(O)c(O)c2)oc2cc(O)c(O)c(O)c2c1=O	0.0575 µM
C[C@H]1OC(Oc2c(-c3ccc(O)c(O)c3)oc3cc(O)cc(O)c3c2=O)[C@@H](O)[C@@H](O)[C@@H]1O (some centres not stated)	1.17 µM
O=c1cc(-c2ccc(O)cc2)oc2ccc(O)cc12	5.25 µM
COc1cc2oc(-c3ccc(O)c(O)c3)c(OC)c(=O)c2c(O)c1O	0.813 µM
COc1ccc(-c2cc(=O)c3c(O)c(OC)c(O)c(OC)c3o2)cc1OC	29.5 µM
COc1cc2oc(-c3ccc(OC4O[C@H](CO)[C@@H](O)[C@H](O)[C@H]4O)cc3)cc(=O)c2c(O)c1OC (some centres not stated)	16.2 µM
COc1cc2oc(-c3ccc(OC4O[C@H](CO)[C@@H](O)[C@H](O)[C@H]4O)c(O)c3)cc(=O)c2c(O)c1OC (some centres not stated)	8.2 µM
COc1c(O)c(O)c(O)c2c(=O)cc(-c3ccc(O)cc3)oc12	1.2 µM
COc1cc(O)c2c(=O)cc(-c3cc(OC)c(O)cc3OC)oc2c1	1000 µM
O=c1cc(-c2ccc(O)cc2O)oc2cc(O)ccc12	2.29 µM
O=c1cc(-c2ccc(O)c(O)c2)oc2cc(O)c(O)c(O)c12 [6-HYDROXYLUTEOLIN]	0.204 µM
COc1c(O)cc2oc(-c3ccc(O)c(O)c3)c(OC)c(=O)c2c1O [AXILLARIN]	0.028 µM
COc1cc2oc(-c3ccc(O)c(O)c3)c(OC)c(=O)c2c(O)c1OC [CHRYSOSPLENOL D]	0.348 µM
COc1cc2oc(-c3ccc(O)cc3)cc(=O)c2c(O)c1OC [CIRSIMARITIN]	1.41 µM
COc1ccc(-c2cc(=O)c3c(O)c(OC)c(O)c(OC)c3o2)cc1 [NEVADENSIN]	7.24 µM
COc1c(OC)c(O)c2c(=O)cc(-c3ccc(O)cc3)oc2c1OC [XANTHOMICROL]	0.537 µM

Next, values leading:

IC50	Compound
0.24 µM	COc1c(-c2ccc(O)c(O)c2)oc2c(OC)c(O)cc(O)c2c1=O
0.0324 µM	COc1c(OC)c(OC)c2c(=O)cc(-c3ccc(O)c(O)c3)oc2c1OC
1.2 µM	COc1cc(-c2cc(=O)c3c(O)c(O)c(O)c(OC)c3o2)ccc1O
0.229 µM	COc1cc(O)c2c(=O)cc(-c3ccc(O)c(O)c3)oc2c1O
0.407 µM	COc1c(O)c(OC)c2oc(-c3ccc(O)cc3)cc(=O)c2c1O
0.302 µM	COc1cc2oc(-c3ccc(O)c(O)c3)cc(=O)c2c(O)c1O
0.035 µM	COc1c(O)c(OC)c2c(=O)cc(-c3ccc(O)c(O)c3)oc2c1OC
0.282 µM	COc1c(O)cc(O)c2c(=O)cc(-c3ccc(O)c(O)c3)oc12
0.282 µM	COc1c(-c2ccc(O)c(O)c2)oc2c(OC)c(O)cc(OC)c2c1=O
6.31 µM	COc1cc(-c2cc(=O)c3c(OC)c(O)c(OC)c(OC)c3o2)ccc1O
110 µM	COc1cc(-c2cc(=O)c3c(O)c(O)c(OC)c(OC)c3o2)ccc1O
0.851 µM	COc1c(O)c(O)c2c(=O)cc(-c3ccc(O)cc3)oc2c1OC
0.0646 µM	COc1c(O)c(O)c2c(=O)cc(-c3ccc(O)c(O)c3)oc2c1OC
0.0741 µM	COc1c(O)cc(OC)c2c(=O)cc(-c3ccc(O)c(O)c3)oc12
0.12 µM	COc1c(O)c(O)c(O)c2c(=O)cc(-c3ccc(O)c(O)c3)oc12
0.141 µM	COc1cc2oc(-c3ccc(O)c(O)c3)cc(=O)c2c(OC)c1O
0.162 µM	COc1cc(OC)c2c(=O)cc(-c3ccc(O)c(O)c3)oc2c1O
0.0447 µM	COc1cc(OC)c2c(=O)cc(-c3ccc(O)c(O)c3)oc2c1OC
0.0912 µM	COc1cc2oc(-c3ccc(O)c(O)c3)cc(=O)c2c(OC)c1OC
45.7 µM	COc1cc(-c2cc(=O)c3c(O)c(OC)c(OC)c(OC)c3o2)ccc1O
0.0776 µM	COc1cc(O)c2c(=O)cc(-c3ccc(O)c(O)c3)oc2c1OC
6.76 µM	COc1cc(-c2cc(=O)c3c(O)c(OC)c(OC)cc3o2)ccc1O [CIRSILENEOL]
0.17 µM	COc1cc2oc(-c3ccc(O)c(O)c3)cc(=O)c2c(O)c1OC [CIRSILIOL]
0.0389 µM	COc1c(OC)c(O)c2c(=O)cc(-c3ccc(O)c(O)c3)oc2c1OC [SIDERITIFLAVONE]
4.47 µM	COc1cc(-c2cc(=O)c3c(O)c(OC)c(O)c(OC)c3o2)ccc1O [SUDACHITIN]

Source: ChEMBL document CHEMBL1155792, “QSAR prediction of inhibition of aldose reductase for flavonoids” (Bioorg Med Chem, 2008)
